Laboratory results reported in the kinase profiling compilation of Christmann-Franck et al. (2016).

Legend:
Assay in all cases: KINOMEscan competition binding
Conditions in all cases: compound 10.0 µM
ACVR1 (human) = ACVR1 (human) (UniProt Q04771)
ADCK4 (human) = ADCK4 (human) (UniProt Q96D53)
AURKA (human) = AURKA (human) (UniProt O14965)
AURKB (human) = AURKB (human) (UniProt Q96GD4)
AURKC (human) = AURKC (human) (UniProt Q9UQB9)
CAMKK1 (human) = CAMKK1 (human) (UniProt Q8N5S9)
CDC2L2 (human) = CDC2L2 (human) (UniProt Q9UQ88)
CDC42BPG (human) = CDC42BPG (human) (UniProt Q6DT37)
CDK18 (human) = CDK18 (human) (UniProt Q07002)
CHEK1 (human) = CHEK1 (human) (UniProt O14757)
[1] = system: EGFR (human), P00533 [752-759 del]
[2] = system: EGFR (human), P00533 [T790M]
EPHB4 (human) = EPHB4 (human) (UniProt P54760)
ERBB4 (human) = ERBB4 (human) (UniProt Q15303)
IRAK4 (human) = IRAK4 (human) (UniProt Q9NWZ3)
MAP3K10 (human) = MAP3K10 (human) (UniProt Q02779)
Chain of MAP3K10 (human) (Q02779 whole entry, looked up): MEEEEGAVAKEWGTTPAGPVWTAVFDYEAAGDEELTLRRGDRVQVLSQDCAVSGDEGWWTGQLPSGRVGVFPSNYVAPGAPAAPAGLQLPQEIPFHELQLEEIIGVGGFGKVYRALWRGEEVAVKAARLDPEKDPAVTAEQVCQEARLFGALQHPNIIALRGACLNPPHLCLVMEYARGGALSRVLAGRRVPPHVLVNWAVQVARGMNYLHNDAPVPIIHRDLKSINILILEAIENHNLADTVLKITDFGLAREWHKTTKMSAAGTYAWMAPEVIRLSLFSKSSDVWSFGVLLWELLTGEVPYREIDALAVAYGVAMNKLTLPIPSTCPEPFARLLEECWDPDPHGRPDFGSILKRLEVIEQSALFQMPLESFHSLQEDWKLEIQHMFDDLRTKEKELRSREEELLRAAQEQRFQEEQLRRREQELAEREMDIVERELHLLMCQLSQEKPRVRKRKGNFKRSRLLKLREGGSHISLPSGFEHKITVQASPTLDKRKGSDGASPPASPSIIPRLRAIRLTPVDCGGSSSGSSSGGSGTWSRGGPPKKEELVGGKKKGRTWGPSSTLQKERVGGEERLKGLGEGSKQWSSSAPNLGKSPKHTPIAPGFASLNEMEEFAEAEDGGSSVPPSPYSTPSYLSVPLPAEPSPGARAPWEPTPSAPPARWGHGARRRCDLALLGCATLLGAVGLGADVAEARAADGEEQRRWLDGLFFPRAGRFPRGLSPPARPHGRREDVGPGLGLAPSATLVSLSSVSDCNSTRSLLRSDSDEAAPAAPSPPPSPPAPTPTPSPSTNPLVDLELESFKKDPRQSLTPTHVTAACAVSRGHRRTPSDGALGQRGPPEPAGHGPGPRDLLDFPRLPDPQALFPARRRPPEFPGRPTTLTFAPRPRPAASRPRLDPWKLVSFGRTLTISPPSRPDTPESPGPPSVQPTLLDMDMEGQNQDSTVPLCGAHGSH

MAP3K11 (human) = MAP3K11 (human) (UniProt Q16584)
Chain of MAP3K11 (human) (Q16584 whole entry, looked up): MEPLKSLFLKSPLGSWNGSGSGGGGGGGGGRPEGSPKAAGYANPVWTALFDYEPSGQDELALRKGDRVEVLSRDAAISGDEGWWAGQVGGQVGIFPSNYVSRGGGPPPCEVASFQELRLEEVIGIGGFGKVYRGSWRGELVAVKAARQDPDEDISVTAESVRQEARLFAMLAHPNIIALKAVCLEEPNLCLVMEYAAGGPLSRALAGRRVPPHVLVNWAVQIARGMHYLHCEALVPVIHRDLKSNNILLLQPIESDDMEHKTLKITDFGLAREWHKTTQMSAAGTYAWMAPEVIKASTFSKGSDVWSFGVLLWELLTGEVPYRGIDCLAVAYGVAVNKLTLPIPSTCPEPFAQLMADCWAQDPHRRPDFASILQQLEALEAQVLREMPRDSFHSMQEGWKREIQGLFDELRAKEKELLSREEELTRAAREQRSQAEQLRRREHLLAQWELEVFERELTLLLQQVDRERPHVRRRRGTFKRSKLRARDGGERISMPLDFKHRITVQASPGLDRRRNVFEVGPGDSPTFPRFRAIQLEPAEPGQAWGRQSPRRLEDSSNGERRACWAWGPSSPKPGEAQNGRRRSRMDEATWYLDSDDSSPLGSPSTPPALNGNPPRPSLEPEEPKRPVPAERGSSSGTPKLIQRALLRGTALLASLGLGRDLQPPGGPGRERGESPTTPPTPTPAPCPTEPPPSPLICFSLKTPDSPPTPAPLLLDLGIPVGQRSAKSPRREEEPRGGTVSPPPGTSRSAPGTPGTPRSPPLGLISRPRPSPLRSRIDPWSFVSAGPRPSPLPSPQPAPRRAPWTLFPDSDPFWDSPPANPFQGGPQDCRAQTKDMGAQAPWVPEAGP

MAP4K3 (human) = MAP4K3 (human) (UniProt Q8IVH8)
MAPK10 (human) = MAPK10 (human) (UniProt P53779)
Chain of MAPK10 (human) (P53779 whole entry, looked up): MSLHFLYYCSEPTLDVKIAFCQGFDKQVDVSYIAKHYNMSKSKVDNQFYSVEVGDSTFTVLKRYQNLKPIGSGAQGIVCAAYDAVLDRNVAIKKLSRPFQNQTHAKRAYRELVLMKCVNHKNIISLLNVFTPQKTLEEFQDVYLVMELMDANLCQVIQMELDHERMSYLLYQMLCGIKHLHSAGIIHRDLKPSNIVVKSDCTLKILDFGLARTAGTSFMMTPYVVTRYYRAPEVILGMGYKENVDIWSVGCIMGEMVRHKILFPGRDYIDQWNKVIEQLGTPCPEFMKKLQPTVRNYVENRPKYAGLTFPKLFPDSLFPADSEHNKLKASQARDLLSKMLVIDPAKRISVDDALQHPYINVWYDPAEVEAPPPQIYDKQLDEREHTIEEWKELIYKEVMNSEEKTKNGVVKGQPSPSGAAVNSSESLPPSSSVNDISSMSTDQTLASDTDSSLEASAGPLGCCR

MAPK3 (human) = MAPK3 (human) (UniProt P27361)
MKNK2 (human) = MKNK2 (human) (UniProt Q9HBH9)
MST4 (human) = MST4 (human) (UniProt Q9P289)
NEK3 (human) = NEK3 (human) (UniProt P51956)
NIM1 (human) = NIM1 (human) (UniProt Q8IY84)
NTRK3 (human) = NTRK3 (human) (UniProt Q16288)
Chain of NTRK3 (human) (Q16288 whole entry, looked up): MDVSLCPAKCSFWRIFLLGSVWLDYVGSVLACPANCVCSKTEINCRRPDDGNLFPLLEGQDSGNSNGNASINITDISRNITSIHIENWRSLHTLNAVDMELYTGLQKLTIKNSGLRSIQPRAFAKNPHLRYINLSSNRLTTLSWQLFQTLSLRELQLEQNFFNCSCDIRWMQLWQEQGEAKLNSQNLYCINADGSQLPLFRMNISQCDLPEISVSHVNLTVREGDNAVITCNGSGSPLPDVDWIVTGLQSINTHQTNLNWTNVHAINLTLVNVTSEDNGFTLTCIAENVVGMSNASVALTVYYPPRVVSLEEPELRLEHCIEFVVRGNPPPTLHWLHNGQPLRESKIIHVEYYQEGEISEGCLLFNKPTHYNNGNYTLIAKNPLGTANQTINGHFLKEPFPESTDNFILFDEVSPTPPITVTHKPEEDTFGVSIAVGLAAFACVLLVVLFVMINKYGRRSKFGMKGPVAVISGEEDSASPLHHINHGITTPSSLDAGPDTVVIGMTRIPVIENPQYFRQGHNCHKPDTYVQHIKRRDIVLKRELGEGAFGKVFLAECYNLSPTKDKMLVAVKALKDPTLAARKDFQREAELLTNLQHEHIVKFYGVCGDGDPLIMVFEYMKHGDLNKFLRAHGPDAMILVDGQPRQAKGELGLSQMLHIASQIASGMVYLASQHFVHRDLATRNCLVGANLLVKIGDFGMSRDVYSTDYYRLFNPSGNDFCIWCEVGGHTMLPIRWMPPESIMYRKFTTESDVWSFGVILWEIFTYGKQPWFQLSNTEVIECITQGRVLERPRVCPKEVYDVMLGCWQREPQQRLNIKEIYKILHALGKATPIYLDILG

NUAK1 (human) = NUAK1 (human) (UniProt O60285)
PKMYT1 (human) = PKMYT1 (human) (UniProt Q99640)
PRKAA2 (human) = PRKAA2 (human) (UniProt P54646)
PRKACA (human) = PRKACA (human) (UniProt P17612)
RAF1 (human) = RAF1 (human) (UniProt P04049)
RET (human) = RET (human) (UniProt P07949)
RPS6KA1 KD2 (human) = RPS6KA1 KD2 (human) (UniProt Q15418)
RPS6KA3 KD1 (human) = RPS6KA3 KD1 (human) (UniProt P51812)
Chain of RPS6KA3 KD1 (human) (P51812 whole entry, looked up): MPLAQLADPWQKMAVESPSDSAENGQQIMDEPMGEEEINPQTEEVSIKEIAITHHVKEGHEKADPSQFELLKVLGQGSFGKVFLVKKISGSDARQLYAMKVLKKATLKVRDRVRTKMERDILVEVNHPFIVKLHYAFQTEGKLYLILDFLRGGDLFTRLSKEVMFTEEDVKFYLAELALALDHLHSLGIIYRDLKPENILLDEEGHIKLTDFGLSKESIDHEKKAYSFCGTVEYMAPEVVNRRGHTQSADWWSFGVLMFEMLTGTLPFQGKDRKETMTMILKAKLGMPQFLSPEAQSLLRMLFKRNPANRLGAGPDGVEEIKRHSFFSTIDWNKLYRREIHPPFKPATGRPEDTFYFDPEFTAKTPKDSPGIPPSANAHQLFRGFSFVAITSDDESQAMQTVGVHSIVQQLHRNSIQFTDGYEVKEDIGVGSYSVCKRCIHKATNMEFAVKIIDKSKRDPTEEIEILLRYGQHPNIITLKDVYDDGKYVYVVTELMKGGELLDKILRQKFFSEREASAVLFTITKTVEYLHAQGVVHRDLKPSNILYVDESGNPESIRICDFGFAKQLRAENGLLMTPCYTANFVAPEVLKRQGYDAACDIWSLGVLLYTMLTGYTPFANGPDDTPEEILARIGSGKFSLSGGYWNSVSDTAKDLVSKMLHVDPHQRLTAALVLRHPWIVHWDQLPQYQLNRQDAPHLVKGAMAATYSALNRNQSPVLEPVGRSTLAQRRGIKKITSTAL

STK24 (human) = STK24 (human) (UniProt Q9Y6E0)
Chain of STK24 (human) (Q9Y6E0 whole entry, looked up): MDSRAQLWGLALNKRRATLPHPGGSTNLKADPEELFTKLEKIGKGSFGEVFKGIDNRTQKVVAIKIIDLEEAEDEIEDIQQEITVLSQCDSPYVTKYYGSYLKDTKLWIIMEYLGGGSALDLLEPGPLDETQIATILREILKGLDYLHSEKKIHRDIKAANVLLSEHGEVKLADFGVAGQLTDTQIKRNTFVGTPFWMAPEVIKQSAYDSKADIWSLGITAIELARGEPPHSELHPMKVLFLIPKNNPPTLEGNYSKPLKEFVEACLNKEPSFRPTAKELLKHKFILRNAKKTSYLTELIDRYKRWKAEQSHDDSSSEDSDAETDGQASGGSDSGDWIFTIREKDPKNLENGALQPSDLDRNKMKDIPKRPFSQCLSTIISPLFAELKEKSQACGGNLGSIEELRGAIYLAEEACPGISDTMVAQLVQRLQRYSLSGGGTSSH

STK3 (human) = STK3 (human) (UniProt Q13188)
STK39 (human) = STK39 (human) (UniProt Q9UEW8)
STK4 (human) = STK4 (human) (UniProt Q13043)
TAOK2 (human) = TAOK2 (human) (UniProt Q9UL54)
TGFBR1 (human) = TGFBR1 (human) (UniProt P36897)
TNIK (human) = TNIK (human) (UniProt Q9UKE5)
TSSK1B (human) = TSSK1B (human) (UniProt Q9BXA7)

Chain of AURKC (human) (Q9UQB9 whole entry, looked up): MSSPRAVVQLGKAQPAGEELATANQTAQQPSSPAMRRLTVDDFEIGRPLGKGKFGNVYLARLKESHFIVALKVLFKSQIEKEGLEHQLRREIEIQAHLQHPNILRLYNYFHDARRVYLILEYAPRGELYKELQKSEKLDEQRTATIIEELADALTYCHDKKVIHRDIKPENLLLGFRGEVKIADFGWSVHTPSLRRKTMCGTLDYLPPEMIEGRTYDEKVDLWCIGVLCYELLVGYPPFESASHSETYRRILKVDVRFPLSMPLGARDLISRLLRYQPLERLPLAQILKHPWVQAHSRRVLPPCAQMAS
Chain of AURKA (human) (O14965 whole entry, looked up): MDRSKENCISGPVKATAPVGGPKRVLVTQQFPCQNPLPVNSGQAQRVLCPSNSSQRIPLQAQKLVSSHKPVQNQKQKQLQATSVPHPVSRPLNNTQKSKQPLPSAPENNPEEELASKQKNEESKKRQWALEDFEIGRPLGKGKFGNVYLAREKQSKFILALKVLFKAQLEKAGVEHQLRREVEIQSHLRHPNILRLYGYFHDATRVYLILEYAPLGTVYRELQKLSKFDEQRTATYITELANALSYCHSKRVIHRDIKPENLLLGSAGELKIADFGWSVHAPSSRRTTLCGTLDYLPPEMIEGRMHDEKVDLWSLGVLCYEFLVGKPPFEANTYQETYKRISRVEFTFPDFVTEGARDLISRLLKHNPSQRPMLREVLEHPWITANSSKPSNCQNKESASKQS

## COc1ccc(-c2ccc3c(N4CCOCC4)nc(N4C[C@@H](C)O[C@@H](C)C4)nc3n2)cc1CO
ACVR1 (human)
  kinase still bound, per cent of control: 100%
ADCK4 (human)
  kinase still bound, per cent of control: 87%
AURKA (human)
  kinase still bound, per cent of control: 80%
AURKB (human)
  kinase still bound, per cent of control: 73%
AURKC (human)
  kinase still bound, per cent of control: 100%
CAMKK1 (human)
  kinase still bound, per cent of control: 100%
CDC2L2 (human)
  per cent of control: 100%
CDC42BPG (human)
  kinase still bound, per cent of control: 65%
CDK18 (human)
  per cent of control: 100%
CHEK1 (human)
  kinase still bound, per cent of control: 99%
[1]
  kinase still bound, per cent of control: 100%
[2]
  kinase still bound, per cent of control: 100%
EPHB4 (human)
  kinase still bound, per cent of control: 100%
ERBB4 (human)
  kinase still bound, per cent of control: 89%
IRAK4 (human)
  kinase still bound, per cent of control: 99%
MAP3K10 (human)
  kinase still bound, per cent of control: 98%
MAP3K11 (human)
  kinase still bound, per cent of control: 100%
MAP4K3 (human)
  kinase still bound, per cent of control: 85%
MAPK10 (human)
  kinase still bound, per cent of control: 81%
MAPK3 (human)
  kinase still bound, per cent of control: 100%
MKNK2 (human)
  kinase still bound, per cent of control: 75%
MST4 (human)
  kinase still bound, per cent of control: 100%
NEK3 (human)
  kinase still bound, per cent of control: 61%
NIM1 (human)
  kinase still bound, per cent of control: 97%
NTRK3 (human)
  kinase still bound, per cent of control: 77%
NUAK1 (human)
  kinase still bound, per cent of control: 76%
PKMYT1 (human)
  kinase still bound, per cent of control: 84%
PRKAA2 (human)
  kinase still bound, per cent of control: 100%
PRKACA (human)
  per cent of control: 100%
RAF1 (human)
  kinase still bound, per cent of control: 100%
RET (human)
  kinase still bound, per cent of control: 91%
RPS6KA1 KD2 (human)
  kinase still bound, per cent of control: 100%
RPS6KA3 KD1 (human)
  kinase still bound, per cent of control: 99%
STK24 (human)
  kinase still bound, per cent of control: 89%
STK3 (human)
  kinase still bound, per cent of control: 85%
STK39 (human)
  per cent of control: 100%
STK4 (human)
  kinase still bound, per cent of control: 100%
TAOK2 (human)
  kinase still bound, per cent of control: 76%
TGFBR1 (human)
  kinase still bound, per cent of control: 100%
TNIK (human)
  kinase still bound, per cent of control: 100%
TSSK1B (human)
  kinase still bound, per cent of control: 91%

## CCC(=O)N1CCN(c2ccc(-n3c(=O)ccc4cnc5ccc(-c6cnc7ccccc7c6)cc5c43)cc2C(F)(F)F)CC1
ACVR1 (human)
  kinase still bound, per cent of control: 28%
ADCK4 (human)
  kinase still bound, per cent of control: 15%
AURKA (human)
  kinase still bound, per cent of control: 100%
AURKB (human)
  kinase still bound, per cent of control: 82%
AURKC (human)
  kinase still bound, per cent of control: 91%
CAMKK1 (human)
  kinase still bound, per cent of control: 80%
CDC2L2 (human)
  per cent of control: 100%
CDC42BPG (human)
  kinase still bound, per cent of control: 1.6%
CDK18 (human)
  per cent of control: 97%
[1]
  kinase still bound, per cent of control: 84%
[2]
  kinase still bound, per cent of control: 100%
EPHB4 (human)
  kinase still bound, per cent of control: 85%
ERBB4 (human)
  kinase still bound, per cent of control: 100%
IRAK4 (human)
  kinase still bound, per cent of control: 90%
MAP3K10 (human)
  kinase still bound, per cent of control: 99%
MAP3K11 (human)
  kinase still bound, per cent of control: 69%
MAP4K3 (human)
  kinase still bound, per cent of control: 1.9%
MAPK10 (human)
  kinase still bound, per cent of control: 31%
MAPK3 (human)
  kinase still bound, per cent of control: 91%
MKNK2 (human)
  kinase still bound, per cent of control: 54%
MST4 (human)
  kinase still bound, per cent of control: 89%
NEK3 (human)
  kinase still bound, per cent of control: 100%
NIM1 (human)
  kinase still bound, per cent of control: 84%
NTRK3 (human)
  kinase still bound, per cent of control: 100%
NUAK1 (human)
  kinase still bound, per cent of control: 100%
PKMYT1 (human)
  kinase still bound, per cent of control: 52%
PRKAA2 (human)
  kinase still bound, per cent of control: 74%
PRKACA (human)
  per cent of control: 79%
RAF1 (human)
  kinase still bound, per cent of control: 48%
RET (human)
  kinase still bound, per cent of control: 44%
RPS6KA1 KD2 (human)
  kinase still bound, per cent of control: 100%
RPS6KA3 KD1 (human)
  kinase still bound, per cent of control: 38%
STK24 (human)
  kinase still bound, per cent of control: 100%
STK3 (human)
  kinase still bound, per cent of control: 24%
STK39 (human)
  per cent of control: 100%
STK4 (human)
  kinase still bound, per cent of control: 7.6%
TAOK2 (human)
  kinase still bound, per cent of control: 84%
TGFBR1 (human)
  kinase still bound, per cent of control: 70%
TNIK (human)
  kinase still bound, per cent of control: 39%
TSSK1B (human)
  kinase still bound, per cent of control: 100%

## CC(C)n1nc(-c2cc3cc(O)ccc3[nH]2)c2c(N)ncnc21
ACVR1 (human)
  kinase still bound, per cent of control: 0.1%
ADCK4 (human)
  kinase still bound, per cent of control: 13%
AURKA (human)
  kinase still bound, per cent of control: 100%
AURKB (human)
  kinase still bound, per cent of control: 85%
AURKC (human)
  kinase still bound, per cent of control: 68%
CAMKK1 (human)
  kinase still bound, per cent of control: 49%
CDC2L2 (human)
  per cent of control: 100%
CDC42BPG (human)
  kinase still bound, per cent of control: 86%
CDK18 (human)
  per cent of control: 100%
CHEK1 (human)
  kinase still bound, per cent of control: 66%
ERBB4 (human)
  kinase still bound, per cent of control: 49%
IRAK4 (human)
  kinase still bound, per cent of control: 44%
MAP3K10 (human)
  kinase still bound, per cent of control: 53%
MAP3K11 (human)
  kinase still bound, per cent of control: 79%
MAP4K3 (human)
  kinase still bound, per cent of control: 52%
MAPK10 (human)
  kinase still bound, per cent of control: 72%
MAPK3 (human)
  kinase still bound, per cent of control: 100%
MKNK2 (human)
  kinase still bound, per cent of control: 4.5%
MST4 (human)
  kinase still bound, per cent of control: 31%
NEK3 (human)
  kinase still bound, per cent of control: 55%
NIM1 (human)
  kinase still bound, per cent of control: 88%
NTRK3 (human)
  kinase still bound, per cent of control: 49%
NUAK1 (human)
  kinase still bound, per cent of control: 86%
PKMYT1 (human)
  kinase still bound, per cent of control: 37%
PRKAA2 (human)
  kinase still bound, per cent of control: 67%
PRKACA (human)
  per cent of control: 47%
RAF1 (human)
  kinase still bound, per cent of control: 41%
RET (human)
  kinase still bound, per cent of control: 0%
RPS6KA1 KD2 (human)
  kinase still bound, per cent of control: 46%
RPS6KA3 KD1 (human)
  kinase still bound, per cent of control: 0.35%
STK24 (human)
  kinase still bound, per cent of control: 67%
STK39 (human)
  per cent of control: 97%
STK4 (human)
  kinase still bound, per cent of control: 84%
TAOK2 (human)
  kinase still bound, per cent of control: 1.2%
TGFBR1 (human)
  kinase still bound, per cent of control: 1.1%
TNIK (human)
  kinase still bound, per cent of control: 2.4%
TSSK1B (human)
  kinase still bound, per cent of control: 83%
